Experimental findings from paper PMC12053792 (Journal of Peptide Science, 2025) are described below.

Entries after “also recorded” stand apart in the source; their conditions may differ.

One data set concerns HHDII/DR1 mice. The experiment in a line: In vivo toxicity in HHDII/DR1 mice. Also on record: species or system HHDII/DR1 (HLA‐A2 transgenic) mice. The note with it: 10 nmol in 50 μL s.c., days 1, 8 and 15, n = 3. The protocol: (§1) Animal experiments were carried out with ethical approval from University of Nottingham ethical review board and under a Home Office approved project license (PP2706800). Mice were dosed with 10 nmol of material in 50 μL at Days 1, 8 and 15 (n = 3). IFNϒ ELISpot assays on splenocytes were conducted on termination at Day 21. General methods for the ELISpot can be found in the Supporting Information. Preparation of media and buffers and steps performed on Days 1 and 2 post‐termination; the ELISpot assays were performed using a laminar flow cabinet and aseptic techniques to ensure the sterility of media, reagents and plates at stages before development of the ELISpot. Development of the ELISpot on Day 4 posttermination was performed on the laboratory bench.
(§2) In Vivo Evaluation (ELISpot Assay)
(§3) Animal experiments were carried out with ethical approval from University of Nottingham ethical review boards and under a Home Office approved project license (PP2706800). HLA-HHDII/DR1 (HLA-A2.1+/+ HLADR1+/+, Pasteur Institute) transgenic mice knocked out for murine MHC-I and II and expressing chimeric HLA-A2 (HHDII) and human HLA-DR1 or Balb/c mice (Charles River) aged 6-12 weeks were used. Mice were vaccinated with 10 ηmol of each immunogen at each timepoint. Doses were delivered subcutaneously (s.c.) in 50 µl volume on days 1, 8 and 15. No anaesthesia was used for injections. […]

A further data set has as its system IFNγ‐secreting T‐cells. The experiment in a line: In vivo immunisation, IFNγ ELISpot on splenocytes, HHDII/DR1 mice. Further details: species or system HHDII/DR1 (HLA‐A2 transgenic) mice. Here is the method: as §1, §2
as §3, with “injections. Responses were screened on day 21 after euthanasia by cervical dislocation. Preparation of media and buffers and steps performed on days 1 and 2 of the ELISpot assay were performed using a laminar flow cabinet and aseptic techniques to ensure the sterility of media, reagents and plates at stages before development of the ELISpot. Development of the ELISpot on day 4 can be performed on the” for “injections.”
The following tables summarise the details of the vaccine candidates and vaccination procedure including (dose time points):
Table S5. Summary of the injection schedule (including dose concentration and number) for Pam2Cys-SK4-NY-ESO-1157-165 (2) candidate using HHDII/DR1 Tg mice. […]

On to “3: vaccine‐adjuvant construct Pam2Cys‐SK4‐NY‐ESO‐1_157‐165 [compound 3]”, for which the “In vivo toxicity outcome” value in the data set on HHDII/DR1 mice is “non‐toxic”. The “Immune response (in words)” value in the data set with IFNγ‐secreting T‐cells (healthy HLA‐A2 transgenic (HHDII/DR1) mice, 10 nmol in 50 μL s.c., days 1, 8, 15, n = 3, day 21, versus media‐only negative control) is on record as “specific but weak responses; also recorded: weakly immunogenic; also recorded: shows activity as a self‐adjuvanting vaccine candidate”. Moreover, the “ANOVA significance (in words)” value in the data set with IFNγ‐secreting T‐cells (restimulated with NY‐ESO‐1_87‐111 and NY‐ESO‐1_119‐143) is reported as “not significant”; in the data set on IFNγ‐secreting T‐cells (restimulated with NY‐ESO‐1_157‐165) it was “significant effect”.
